Assay results taken from US8193198B2, “Uracil compounds and a herbicide comprising the same” (Korea Research Institute of Chemical Technology, priority 2008, dated 2012).

How the values were obtained:
Assay type in all cases: in vivo
[1] = test system: Echinochloa crus-galli; experiment: Foliar treatment herbicidal activity test; settings: 2 weeks; for pest or weed control at 16 g/ha / pest or weed control at 8 g/ha: Echinochloa crus-galli, 336 h; for pest or weed control at 16 g/ha: Table 6 (III), 16 g a.i./ha
Experimental: (§1) A compound fertilizer for horticulture (N:P:K=11:10:11) was mixed with sterilized sandy soil (pH 6.1, organic substance 1.0%, clay 21%, silt 17%, sand 52%), 1 g per each pot (350 cm^2). The soil was filled in a square plastic pot, and corn, Poaceae plants including Panicum dichotomiflorum and Digitaria ciliaris, broadleaf plants including Solanum nigrum, Aeschynomene indica, Abutilon theophrasti and cocklebur, or convolvulus rhizome were sown and covered with soil. Soil treatment was carried out by spraying a test formulation 1 day after the sowing, and foliar treatment, 8 to 12 days after the sowing. The test formulation was prepared by dissolving of a test compound in a mixture of 5 wt % of acetone and 1 wt % of an emulsifier, and diluting with water to prepare a wettable powder. 2000 L of the test formulation was sprayed per hectare. The amount of the active compound was adjusted to a desired quantity.
(§2) Following the treatment, the plants were grown for 2 weeks under a greenhouse condition (25-35° C. during the day and 20-25° C. at night, 14 hour light cycle). Herbicidal activity was evaluated in comparison to a non-treated control group according to the following standard: for weeds, 0 (no herbicidal effect) to 100 (complete destruction); and for crops 0 (harmless) to […] (complete destruction).

[2] = test system: Digitaria ciliaris; experiment: Foliar treatment herbicidal activity test; settings: 2 weeks; for pest or weed control at 16 g/ha / pest or weed control at 8 g/ha: Digitaria ciliaris, 336 h; for pest or weed control at 16 g/ha: Table 6 (III), 16 g a.i./ha
Experimental: as §1, §2

[3] = test system: Solanum nigrum; experiment: Foliar treatment herbicidal activity test; settings: 2 weeks, scale 0 to 100 (complete destruction)
Experimental: as §1, §2

[4] = test system: Panicum dichotomiflorum; experiment: Foliar treatment herbicidal activity test; settings: 2 weeks, scale 0 to 100 (complete destruction)
Experimental: as §1, §2

[5] = test system: Aeschynomene indica; experiment: Foliar treatment herbicidal activity test; settings: 2 weeks, scale 0 to 100 (complete destruction)
Experimental: as §1, §2

[6] = test system: Abutilon theophrasti; experiment: Foliar treatment herbicidal activity test; settings: 2 weeks, scale 0 to 100 (complete destruction)
Experimental: as §1, §2

[7] = test system: Sorghum bicolor; experiment: Foliar treatment herbicidal activity test; settings: Table 4 (I), 8 g a.i./ha, 2 weeks, scale 0 to 100 (complete destruction)
Experimental: as §1, §2

[8] = test system: Cocklebur; experiment: Foliar treatment herbicidal activity test; settings: for Herbicidal activity, Cocklebur: foliar treatment, 8 g a.i./ha, 2 weeks
Experimental: as §1, §2

[9] = test system: Wheat; experiment: Soil treatment test, crop harm; settings: Table 7, 32 g a.i./ha, 2 weeks, crops scale 0 (harmless) to 10 (complete destruction)
[10] = test system: Digitaria ciliaris; experiment: Soil treatment herbicidal activity test; settings: Table 7, 32 g a.i./ha, 2 weeks, scale 0 to 100 (complete destruction)
Experimental: as §1, §2

[11] = test system: Solanum nigrum; experiment: Soil treatment herbicidal activity test; settings: Table 7, 32 g a.i./ha, 2 weeks, scale 0 to 100 (complete destruction)
Experimental: as §1, §2

[12] = test system: Aeschynomene indica; experiment: Soil treatment herbicidal activity test; settings: Table 7, 32 g a.i./ha, 2 weeks, scale 0 to 100 (complete destruction)
Experimental: as §1, §2

[13] = test system: Sorghum bicolor; experiment: Soil treatment herbicidal activity test; settings: Table 7, 32 g a.i./ha, 2 weeks, scale 0 to 100 (complete destruction)
Experimental: as §1, §2

[14] = test system: Abutilon theophrasti; experiment: Soil treatment herbicidal activity test; settings: Table 7, 32 g a.i./ha, 2 weeks, scale 0 to 100 (complete destruction)
Experimental: as §1, §2

[15] = test system: Corn; experiment: Soil treatment test, crop harm; settings: Table 7, 32 g a.i./ha, 2 weeks, crops scale 0 (harmless) to 10 (complete destruction)
Experimental: as §1, §2

[16] = test system: Cyperus serotinus; experiment: Foliar treatment herbicidal activity test; settings: Table 4 (I), 8 g a.i./ha, 2 weeks, scale 0 to 100 (complete destruction)
[17] = test system: monocot weeds; experiment: Foliar treatment herbicidal activity test (summary in text)
Experimental: as §1, §2

[18] = scale 0 to 100 (complete destruction)
[19] = Table 4 (I), 8 g a.i./ha, scale 0 to 100 (complete destruction)
[20] = Table 4 (I), scale 0 to 100 (complete destruction)
[21] = Table 5 (II), 8 g a.i./ha, scale 0 to 100 (complete destruction)
[22] = Table 3, 8 g a.i./ha, scale 0 (no herbicidal effect) to 100 (complete destruction)
[23] = Table 3, scale 0 (no herbicidal effect) to 100 (complete destruction)

SMILES	pest or weed control at 16 g/ha [1, 18]	pest or weed control at 16 g/ha [2, 18]	Herbicidal activity, Solanum nigrum ([3]; Table 6 (III), 16 g a.i./ha)	Herbicidal activity, Panicum dichotomiflorum ([4]; Table 6 (III), 16 g a.i./ha)	Herbicidal activity, Aeschynomene indica ([5]; Table 6 (III), 16 g a.i./ha)	Herbicidal activity, Abutilon theophrasti ([6]; Table 6 (III), 16 g a.i./ha)	pest or weed control at 8 g/ha [1, 22]	pest or weed control at 8 g/ha [2, 22]	Herbicidal activity, Cocklebur [8, 23]	Herbicidal activity against cocklebur (in words) [8]	Herbicidal activity against monocot weeds (in words) [17]	further results
C#CCOC(=O)CCNC(=O)C(C)Oc1cc(-n2c(=O)cc(C(F)(F)F)n(C)c2=O)c(F)cc1Cl (centres unmarked) [Compound No. 26, 3-[{2-[2-chloro-5-(3,6-dihydro-3-methyl-2,6-dioxo-4-trifluoromethyl-1(2H)-pyrimidinyl)-4-fluorophenoxy]-1-oxopropyl}amino]propionic acid propargyl ester]	90%	95%	100	90	100	100	–	–	–	–	–	–
COC(=O)COC(=O)CCNC(=O)C(C)Oc1cc(-n2c(=O)cc(C(F)(F)F)n(C)c2=O)c(F)cc1Cl (centres unmarked) [Compound No. 22, 3-[{2-[2-chloro-5-(3,6-dihydro-3-methyl-2,6-dioxo-4-trifluoromethyl-1(2H)-pyrimidinyl)-4-fluorophenoxy]-1-oxopropyl}amino]propionyloxy acetic acid methyl ester]	100%	85%	100	100	100	100	–	–	–	–	–	–
COC(=O)CCNC(=O)C(C)Sc1cc(-n2c(=O)cc(C(F)(F)F)n(C)c2=O)c(F)cc1Cl (centres unmarked) [Compound No. 36, 3-[{2-[2-chloro-5-(3,6-dihydro-3-methyl-2,6-dioxo-4-trifluoromethyl-1(2H)-pyrimidinyl)-4-fluorophenylthio]-1-oxopropyl}amino]propionic acid methyl ester]	–	–	–	–	–	–	–	–	–	–	–	pest or weed control at 8 g/ha [2, 19]: 100%; Herbicidal activity, Aeschynomene indica ([5]; Table 4 (I), 8 g a.i./ha): 100; Herbicidal activity, Sorghum bicolor [7]: 100; Herbicidal activity, Abutilon theophrasti ([6]; Table 4 (I), 8 g a.i./ha): 100; Herbicidal activity, Cocklebur [8, 20]: 100; Crop harm, Wheat [9]: 0; Herbicidal activity, Digitaria ciliaris [10]: 100; Herbicidal activity, Solanum nigrum [11]: 100; Herbicidal activity, Aeschynomene indica [12]: 100; Herbicidal activity, Sorghum bicolor [13]: 100; Herbicidal activity, Abutilon theophrasti [14]: 100; Crop harm, Corn [15]: 0; Herbicidal activity, Cyperus serotinus [16]: 100
CCOC(=O)CCNC(=O)C(C)Oc1cc(-n2c(=O)cc(C(F)(F)F)n(C)c2=O)c(F)cc1Cl (centres unmarked) [Compound No. 24, 3-[{2-[2-chloro-5-(3,6-dihydro-3-methyl-2,6-dioxo-4-trifluoromethyl-1(2H)-pyrimidinyl)-4-fluorophenoxy]-1-oxopropyl}amino]propionic acid ethyl ester]	–	–	–	–	–	–	–	–	–	–	–	pest or weed control at 8 g/ha [1, 21]: 98%; pest or weed control at 8 g/ha [2, 21]: 99%; Herbicidal activity, Solanum nigrum ([3]; Table 5 (II), 8 g a.i./ha): 100; Herbicidal activity, Panicum dichotomiflorum ([4]; Table 5 (II), 8 g a.i./ha): 99; Herbicidal activity, Aeschynomene indica ([5]; Table 5 (II), 8 g a.i./ha): 100; Herbicidal activity, Abutilon theophrasti ([6]; Table 5 (II), 8 g a.i./ha): 100
COC(=O)CCNC(=O)C(C)Oc1cc(-n2c(=O)cc(C(F)(F)F)n(C)c2=O)c(F)cc1Cl (centres unmarked) [Compound No. 1, 3-[{2-[2-chloro-5-(3,6-dihydro-3-methyl-2,6-dioxo-4-trifluoromethyl-1(2H)-pyrimidinyl)-4-fluorophenoxy]-1-oxopropyl}amino]propionic acid methyl ester]	–	–	–	–	–	–	100%	100%	100	–	–	Herbicidal activity, Echinochloa crus-galli [1, 21]: 100; Herbicidal activity, Digitaria ciliaris [2, 19]: 100; Herbicidal activity, Digitaria ciliaris [2, 21]: 100; Herbicidal activity, Solanum nigrum ([3]; Table 5 (II), 8 g a.i./ha): 100; Herbicidal activity, Panicum dichotomiflorum ([4]; Table 5 (II), 8 g a.i./ha): 100; Herbicidal activity, Aeschynomene indica ([5]; Table 4 (I), 8 g a.i./ha): 100; Herbicidal activity, Aeschynomene indica ([5]; Table 5 (II), 8 g a.i./ha): 100; Herbicidal activity, Sorghum bicolor [7]: 97; Herbicidal activity, Abutilon theophrasti ([6]; Table 4 (I), 8 g a.i./ha): 100; Herbicidal activity, Abutilon theophrasti ([6]; Table 5 (II), 8 g a.i./ha): 100; Herbicidal activity, Cocklebur [8, 20]: 100; Crop harm, Wheat [9]: 3; Herbicidal activity, Digitaria ciliaris [10]: 100; Herbicidal activity, Solanum nigrum [11]: 100; Herbicidal activity, Aeschynomene indica [12]: 100; Herbicidal activity, Sorghum bicolor [13]: 100; Herbicidal activity, Abutilon theophrasti [14]: 100; Crop harm, Corn [15]: 2; Herbicidal activity, Cyperus serotinus [16]: 100
CCCCOC(=O)CCNC(=O)C(C)Oc1cc(-n2c(=O)cc(C(F)(F)F)n(C)c2=O)c(F)cc1Cl (centres unmarked) [Compound No. 23, 3-[{2-[2-chloro-5-(3,6-dihydro-3-methyl-2,6-dioxo-4-trifluoromethyl-1(2H)-pyrimidinyl)-4-fluorophenoxy]-1-oxopropyl}amino]propionic acid n-butyl ester]	100%	100%	100	100	100	100	–	–	–	–	–	–
COC(=O)CONC(=O)C(C)Oc1cc(-n2c(=O)cc(C(F)(F)F)n(C)c2=O)c(F)cc1Cl (centres unmarked) [compound 3]	–	–	–	–	–	–	30%	10%	95	imperfect herbicidal activity	very low herbicidal activity	–
COC(=O)CNC(=O)C(C)Oc1cc(-n2c(=O)cc(C(F)(F)F)n(C)c2=O)c(F)cc1Cl (centres unmarked) [compound 1]	–	–	–	–	–	–	55%	30%	98	imperfect herbicidal activity	very low herbicidal activity	–
C=CCOC(=O)CCNC(=O)C(C)Oc1cc(-n2c(=O)cc(C(F)(F)F)n(C)c2=O)c(F)cc1Cl (centres unmarked) [Compound No. 25, 3-[{2-[2-chloro-5-(3,6-dihydro-3-methyl-2,6-dioxo-4-trifluoromethyl-1(2H)-pyrimidinyl)-4-fluorophenoxy]-1-oxopropyl}amino]propionic acid allyl ester]	90%	100%	100	96	100	100	–	–	–	–	–	–
COC(=O)C(C)NC(=O)C(C)Oc1cc(-n2c(=O)cc(C(F)(F)F)n(C)c2=O)c(F)cc1Cl (centres unmarked) [compound 2]	–	–	–	–	–	–	65%	25%	70	imperfect herbicidal activity	very low herbicidal activity	–
